Measurements taken from article PMC3582512, “Application of a Novel Microtitre Plate-Based Assay for the Discovery of New Inhibitors of DNA Gyrase and DNA Topoisomerase VI” (PLoS ONE, 2013).
Entries after “also recorded” stand apart in the source; their conditions may differ.

What was measured:
[1] = target: T1, M. mazei topo VI (Methanosarcina mazei, UniProt Q8PUB7+Q8PUB8); test: Agarose gel-based DNA relaxation assay; format: biochemical; conditions: for IC50: gel relaxation assay, 1 unit (50 nM) topo VI, read-out: Approx. IC50 against M. mazei topo VI
T1 construct: His tag; made in house
Experimental: (§1) The agarose gel-based assay was conducted as previously described, [44], [62]. In brief, topoisomerases were incubated with 0.5 µg of plasmid and the desired concentration of compound for 30 min at 37°C (for DNA gyrase and M. mazei topo VI) or 5 min at 75°C (for S. shibatae topo VI), in a total volume of 30 µL. […] Reactions were stopped by the addition of a loading buffer containing EDTA and the drug extracted by vortexing with either chloroform or aqueous butanol as required. In the case of M. mazei topo VI, it was necessary to include SDS in the loading buffer, at a final concentration of 1%. Samples were loaded onto a 1% agarose gel, run for the appropriate length of time and stained with ethidium bromide before visualisation on a UV transilluminator.

[2] = target: T1, M. mazei topo VI; test: Pyruvate kinase-linked ATPase assay; format: biochemical; conditions: data not shown
Experimental: ATPase assays were performed essentially as described previously except they were adapted to a microplate format using clear, colourless 96-well Microtitre plates (Pro-bind™, Becton Dickinson). Reactions were carried out in 100 µL of the established reaction buffer for either DNA gyrase of M. mazei topo VI [36], [62] supplemented with: 800 µM phosphoenolpyruvate (PEP), 400 µM NADH, 1% (vol/vol) PK/LDH (pyruvate kinase-lactate dehydrogenase mixture in 50% (w/v) glycerol,100 mM KCl, 10 mM HEPES (pH 7.0)) and the desired concentration of hit compound. ATP was initially withheld from the reaction. After 5 min incubation at room temperature the reactions were initiated by the addition of ATP and the absorbance at 340 nm was measured over the course of an hour using a Spectra Max Plus absorbance reader (Molecular Devices). Data were processed by omitting the first 10–15 min of collection and normalising the first retained time point. This was done to exclude artifacts observed within this time frame and for ease of comparison of rates. Controls lacking topoisomerase were used to assess the intrinsic ATPase activity of the test compounds.

[3] = system: Arabidopsis thaliana columbia (Col-0); test: Arabidopsis hypocotyl extension assay and plant growth; format: in vivo
Experimental: The hypocotyl extension assay was conducted as previously described, [66]. MS Salts medium (containing micro and macro elements including vitamins, pH 5.8) was supplemented with 1 g/L sucrose and 0.7 g/L phytagel (Sigma) before autoclaving. After the medium cooled to ∼50°C it was divided into 50 mL aliquots and compounds to be tested (or an equivalent amount of appropriate solvent for control plates) then added at the desired concentration under aseptic conditions. The media were then poured into separate 100 mm square Petri dishes and allowed to cool to room temperature in a laminar flow hood. Arabidopsis thaliana columbia (Col-0) seeds were surface sterilised with 5% bleach for 10 min immediately prior to use. The seeds were then washed three times with sterile water under a laminar flow hood. After surface sterilisation the seeds were planted in a grid pattern (32 seeds per dish) and the dishes sealed with surgical tape. The plates were transferred to 4°C and left for 64 h in the dark to vernalise, after which they were transferred to a 22°C growth cabinet. After 2 h of light exposure the plates were stacked vertically in the dark at 22°C to allow for hypocotyl extension along the agar surface. After 4–5 days the hypocotyls were observed using an optical microscope and their length measured. For experiments where the plants were allowed to form rosettes, the Arabidopsis seedlings were grown horizontally under a 16 h day in a 22°C growth cabinet for the indicated number of weeks.

[4] = target: T2, S. shibatae topo VI (Saccharolobus shibatae, UniProt O05207+O05208); test: Gel-based relaxation assay with S. shibatae topo VI; format: biochemical, Sulfolobus shibatae
T2 construct: gift from Danielle Gadelle (University of Paris XI, Orsay)
Experimental: as §1

[5] = system: Arabidopsis thaliana hypocotyl cells; test: Cryo-SEM of Arabidopsis hypocotyls (cell size); format: in vivo; conditions: 40 µM, 5 days in the dark; control ∼300 µm
Excerpt: Five day old hypocotyls grown on media containing various concentrations of compound were frozen in nitrogen slush and loaded into a Philips XL30 SEM with a cryo stage installed. Samples were sputter coated with platinum and transferred into the microscope chamber for image collection.

[6] = target: T3, E. coli DNA gyrase (Escherichia coli, UniProt P0AES4+P0AES6); test: Protection from Ca2+-induced, gyrase-mediated DNA cleavage; format: biochemical; conditions: 80 µM, 4 mM calcium chloride
T3 construct: made in house
Experimental: (§2) Assays to detect the stabilisation of cleavage complexes were identical to the protocol for topoisomerase activity detailed above, except as follows. Cleavage experiments with DNA gyrase were carried out in the absence of ATP and spermidine and 30 µL reactions were stopped with 3 µL 10% SDS and incubated with 3 µL 1 mg/mL proteinase K solution at 37°C for 1 h. For cleavage complex protection assays with suramin, the reaction buffer was modified to contain 4 mM CaCl2 rather than MgCl2.

[7] = system: E. coli strain NR698; test: Bacterial growth inhibition, membrane-permeable strain; format: cell-based, Escherichia coli; conditions: liquid and solid media
Experimental: (§3) For E. coli work, 10 mL cultures of E. coli MG1655 or NR698 were grown overnight at 37°C in LB medium. A 100 µL sample was then added to 10 mL of LB medium containing the desired concentration of compound. The culture was then allowed to grow at 37°C for 5 h and its OD600 measured every hour. For M. smegmatis, a 50 mL culture was grown for 48 h in Middlebrooks 7H11 medium at 37°C. A 100 µL sample was then added to 10 mL of Middlebrooks 7H11 containing the desired concentration of compound. The culture was then allowed to grow at 37°C for 9 h and its OD600 measured every three hours. For colony counting experiments M. smegmatis was grown for 48 h in 50 mL of Middlebrooks 7H9 medium at 37°C. A 100 µL sample was then added to 10 mL of Middlebrooks 7H9 medium containing the desired concentration test compound and allowed to grow at 37°C overnight. After 16 h, 20 µL samples were taken from these cultures and diluted 1 in 10,000 with Middlebrooks 7H9 medium. Petri dishes containing Middlebrooks 7H11 agar were prepared and 100 µL of each diluted culture was spread out. The plates were subsequently stored at 4°C. This was repeated every three hours for six hours, after which the plates were transferred to 37°C for 48 h. The numbers of colonies for each time point were counted manually.

[8] = system: E. coli MG1655; test: Bacterial growth inhibition; format: cell-based, Escherichia coli; conditions: liquid and solid media
Experimental: as §3

[9] = system: M. smegmatis mc^2155; test: Bacterial growth inhibition and colony counting; format: cell-based, Mycobacterium smegmatis
Experimental: as §3

[10] = target: T3, E. coli DNA gyrase; test: Gel-based gyrase-mediated DNA cleavage assay; format: biochemical; conditions: absence of ATP, concentration not given
Experimental: as §2

[11] = target: T3, E. coli DNA gyrase; test: Agarose gel-based DNA supercoiling assay; format: biochemical
Experimental: as §1

[12] = target: T1, M. mazei topo VI; test: Native gel shift assay, topo VI binding to 147 bp DNA fragment
Experimental: (§4) In order to test the effects of hit compounds upon DNA binding by topoisomerases, samples of enzyme and drug were prepared under the following conditions in a final volume of 10 μL: 1 nM 147 bp linear fragment of DNA derived from pBR322, [82] 50 mM Tris•HCl (pH 7.5), 100 mM KCl, 5 mM MgCl2, 2 mM DTT, 10% w/v glycerol. Samples were incubated for 30 min at room temperature before being run on a 5% (29:1) Protogel acrylamide (National Diagnostics) gel in 90 mM Tris·Borate, 5 mM MgCl2 at 150 V for 45 min. The DNA was stained by soaking in 2 µg/mL ethidium bromide for 10 min and visualised under UV light.

[13] = target: T3, E. coli DNA gyrase; test: Native gel-shift assay, gyrase binding to 147 bp DNA fragment; conditions: 100 µM
Experimental: as §4

T2 sequence (O05207 whole entry): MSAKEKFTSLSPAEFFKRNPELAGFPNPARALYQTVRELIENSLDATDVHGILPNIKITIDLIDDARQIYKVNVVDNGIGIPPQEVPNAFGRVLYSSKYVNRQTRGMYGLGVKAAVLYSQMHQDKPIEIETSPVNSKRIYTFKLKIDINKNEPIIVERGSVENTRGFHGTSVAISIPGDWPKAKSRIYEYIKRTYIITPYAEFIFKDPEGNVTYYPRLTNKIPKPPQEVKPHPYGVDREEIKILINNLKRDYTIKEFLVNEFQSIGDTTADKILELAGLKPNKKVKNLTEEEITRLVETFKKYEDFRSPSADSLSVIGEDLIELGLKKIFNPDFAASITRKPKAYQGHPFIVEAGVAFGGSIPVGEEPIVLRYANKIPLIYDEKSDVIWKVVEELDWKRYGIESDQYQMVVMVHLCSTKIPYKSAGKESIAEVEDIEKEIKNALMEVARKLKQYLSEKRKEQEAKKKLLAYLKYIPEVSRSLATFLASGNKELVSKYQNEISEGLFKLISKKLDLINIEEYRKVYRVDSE
T2 sequence (O05208 whole entry): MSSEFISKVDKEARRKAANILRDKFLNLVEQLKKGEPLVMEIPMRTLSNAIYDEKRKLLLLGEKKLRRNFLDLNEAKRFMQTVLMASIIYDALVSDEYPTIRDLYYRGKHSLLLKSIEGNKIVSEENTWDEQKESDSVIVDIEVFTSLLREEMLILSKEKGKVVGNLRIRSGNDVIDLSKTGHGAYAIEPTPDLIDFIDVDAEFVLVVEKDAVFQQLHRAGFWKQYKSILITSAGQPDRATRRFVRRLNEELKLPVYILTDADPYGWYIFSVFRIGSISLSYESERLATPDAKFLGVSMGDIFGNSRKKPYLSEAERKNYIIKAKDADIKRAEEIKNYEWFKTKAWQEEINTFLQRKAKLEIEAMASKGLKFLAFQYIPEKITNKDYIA
T3 sequence (P0AES4 whole entry, one chain of several): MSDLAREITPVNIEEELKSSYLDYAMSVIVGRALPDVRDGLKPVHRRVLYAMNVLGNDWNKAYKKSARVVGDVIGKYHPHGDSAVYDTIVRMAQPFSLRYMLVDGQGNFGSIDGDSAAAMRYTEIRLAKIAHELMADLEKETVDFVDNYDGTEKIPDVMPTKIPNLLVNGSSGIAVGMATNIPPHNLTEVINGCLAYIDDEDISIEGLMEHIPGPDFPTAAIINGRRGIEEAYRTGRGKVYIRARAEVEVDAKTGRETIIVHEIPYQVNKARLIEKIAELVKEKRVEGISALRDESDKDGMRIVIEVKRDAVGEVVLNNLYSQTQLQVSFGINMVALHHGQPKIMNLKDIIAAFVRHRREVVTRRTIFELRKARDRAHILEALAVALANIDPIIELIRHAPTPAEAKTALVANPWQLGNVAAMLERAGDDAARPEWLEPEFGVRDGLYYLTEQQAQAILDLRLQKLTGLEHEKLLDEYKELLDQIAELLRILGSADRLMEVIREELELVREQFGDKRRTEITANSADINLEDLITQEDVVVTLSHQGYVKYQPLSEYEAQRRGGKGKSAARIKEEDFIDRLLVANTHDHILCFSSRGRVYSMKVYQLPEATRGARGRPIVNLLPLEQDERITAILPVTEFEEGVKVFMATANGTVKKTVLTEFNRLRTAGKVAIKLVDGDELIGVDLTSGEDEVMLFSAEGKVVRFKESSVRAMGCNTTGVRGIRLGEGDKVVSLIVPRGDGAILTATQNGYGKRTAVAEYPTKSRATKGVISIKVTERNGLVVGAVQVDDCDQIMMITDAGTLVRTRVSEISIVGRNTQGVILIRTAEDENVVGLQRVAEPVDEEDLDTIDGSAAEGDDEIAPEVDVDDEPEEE
T1 sequence (Q8PUB8 whole entry): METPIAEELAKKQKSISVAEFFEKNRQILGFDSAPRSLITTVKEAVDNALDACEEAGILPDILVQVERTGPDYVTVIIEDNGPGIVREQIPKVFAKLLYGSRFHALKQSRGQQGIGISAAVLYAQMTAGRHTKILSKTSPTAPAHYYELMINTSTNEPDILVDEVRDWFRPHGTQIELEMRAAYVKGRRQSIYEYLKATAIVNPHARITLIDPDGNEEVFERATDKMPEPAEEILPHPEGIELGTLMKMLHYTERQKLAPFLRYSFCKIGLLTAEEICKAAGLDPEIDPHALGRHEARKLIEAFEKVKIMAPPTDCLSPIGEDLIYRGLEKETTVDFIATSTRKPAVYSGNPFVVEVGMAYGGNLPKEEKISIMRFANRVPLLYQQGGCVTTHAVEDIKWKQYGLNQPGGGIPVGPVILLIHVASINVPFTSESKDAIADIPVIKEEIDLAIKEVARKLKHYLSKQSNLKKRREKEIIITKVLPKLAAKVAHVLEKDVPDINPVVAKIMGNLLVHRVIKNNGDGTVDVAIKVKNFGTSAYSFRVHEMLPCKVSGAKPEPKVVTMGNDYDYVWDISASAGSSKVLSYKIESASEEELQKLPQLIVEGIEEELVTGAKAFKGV
T1 sequence (Q8PUB7 whole entry): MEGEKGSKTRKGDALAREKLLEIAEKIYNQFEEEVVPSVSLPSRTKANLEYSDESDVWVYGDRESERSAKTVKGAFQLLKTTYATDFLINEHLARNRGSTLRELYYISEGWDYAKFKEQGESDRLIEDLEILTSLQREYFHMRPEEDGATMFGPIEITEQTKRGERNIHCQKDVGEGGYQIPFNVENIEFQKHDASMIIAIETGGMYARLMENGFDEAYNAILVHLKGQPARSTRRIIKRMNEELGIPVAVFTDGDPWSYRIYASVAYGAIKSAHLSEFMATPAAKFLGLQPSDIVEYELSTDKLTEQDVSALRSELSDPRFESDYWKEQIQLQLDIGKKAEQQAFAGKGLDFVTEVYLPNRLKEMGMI

CCCCCCc1ccc(O)cc1O [Hexylresorcinol]
Inhibition in gel-based relaxation assay (hit validation) [1]: validated as hits
IC50 [1]: 30 µM
Effect on M. mazei topo VI ATPase activity [2]: appeared to increase the rate of ATP hydrolysis
Effect on M. mazei topo VI ATPase activity ([2]; listed as hexylresorcinol): appears to stimulate hydrolysis of ATP
Average hypocotyl length ([3]; 40 µM): considerably reduced
Plants able to develop into a rosette ([3]; 40 µM, three-week-old plants): seven of the 32 plants
Average length of seedlings (hypocotyl) ([3]; 50 µM, 10 mm in the absence of drug, 5 days in the dark): approximately 1 mm
Seed germination ([3]; 80 µM): germination was reduced
Seed germination ([3]; 100 µM): completely preventing seed germination; also recorded: no seeds germinated
Number of seeds germinated ([3]; up to 50 µM): remained constant
Inhibition of S. shibatae topo VI [4]: did not display any inhibition
Hypocotyl cell size, seedlings with dwarf morphology [5]: ~50 µm

Cc1ccc(C(=O)Nc2ccc(S(=O)(=O)O)c3cc(S(=O)(=O)O)cc(S(=O)(=O)O)c23)cc1NC(=O)c1cccc(NC(=O)Nc2cccc(C(=O)Nc3cc(C(=O)Nc4ccc(S(=O)(=O)O)c5cc(S(=O)(=O)O)cc(S(=O)(=O)O)c45)ccc3C)c2)c1 [Suramin]
Inhibition in gel-based relaxation assay (hit validation) [1]: validated as hits
IC50 [1]: 30 µM
Mechanism (Topo VI) ([1]; summary of mechanistic tests with M. mazei and S. shibatae topo VI): Blocks DNA binding
Protection of DNA from Ca2+-induced cleavage by gyrase [6]: completely protect DNA from cleavage
Inhibition of S. shibatae topo VI [4]: did not display any inhibition; also recorded: did not inhibit
Inhibition of growth / antimicrobial activity [7]: no antimicrobial activity
Inhibition of growth / antimicrobial activity [8]: no antimicrobial activity
Antimicrobial activity [9]: no antimicrobial activity
Induction of gyrase-mediated DNA cleavage [10]: did not display any ability to induce cleavage
Inhibition in gel-based supercoiling assay (hit validation) [11]: displayed inhibition
IC50 ([11]; gel supercoiling assay, 1 unit of gyrase (12 nM), read-out: Approx. IC50 against E. coli DNA gyrase): 80 µM
Mechanism (DNA gyrase) ([11]; summary of this study's mechanistic tests): Blocks DNA binding
Effect on binding of M. mazei topo VI to DNA [12]: appeared to prevent the binding of topo VI to DNA; also recorded: appeared to prevent G-segment binding
Effect on gel shift of 147 bp DNA by DNA gyrase [13]: abolishes this shift
